Measurements: the NIST ThermoML archive (doi:10.1021/je200788z)

Experiments:
[1] = refractive index (Na D-line) (dimensionless); settings: 101.33 kPa, Liquid, Standard Abbe refractometry
[2] = 101.33 kPa, Liquid; for speed of sound: Sing-around technique in a fixed-path interferometer; for mass density: Vibrating tube method

CC(C)COC(=O)[C@H](C)[NH3+].CCCCCCCCCCCCOS(=O)(=O)[O-] [(S)-1-isobutoxy-1-oxopropan-2-aminium dodecyl sulfate]
Settings	mass density, [2] [kg/m3]	refractive index, [1]	speed of sound, [2] [m/s]
288.15 K	1049.18	1.456	1447.6
293.15 K	1045.48	1.454	1423.6
298.15 K	1041.75	1.452	1401.9
303.15 K	1038.02	1.45	1381.6
308.15 K	1034.13	1.4479	1362.5
313.15 K	1030.13	1.4458	1343.9
318.15 K	1026.31	1.4437	1325.8
323.15 K	1022.6	1.4418	1308.1
328.15 K	1019.08	1.4397	1291.2
333.15 K	1015.6	1.4377	1275.8
338.15 K	1012.14	1.4354	1261
343.15 K	1008.75	1.4336	1246.6

CC(C)COC(=O)[C@@H]1CCC[NH2+]1.CCCCCCCCCCCCOS(=O)(=O)[O-] [(S)-2-(isobutoxycarbonyl)pyrrolidinium dodecyl sulfate]
Settings	mass density, [2] [kg/m3]	refractive index, [1]	speed of sound, [2] [m/s]
288.15 K	1043.22	1.4648	1460.2
293.15 K	1039.54	1.4623	1445.2
298.15 K	1035.88	1.4598	1429.2
303.15 K	1032.22	1.4574	1413
308.15 K	1028.57	1.4549	1397.2
313.15 K	1024.92	1.4524	1381.5
318.15 K	1021.27	1.45	1366.1
323.15 K	1017.72	1.4477	1349.1
328.15 K	1014.21	1.4452	1332.9
333.15 K	1010.85	1.4427	1316.8
338.15 K	1007.61	1.4401	1301.5
343.15 K	1004.98	1.4378	1286.2

CC(C)OC(=O)[C@@H]1CCC[NH2+]1.CCCCCCCCCCCCOS(=O)(=O)[O-] [(S)-2-(isopropoxycarbonyl)pyrrolidin-1-ium dodecyl sulfate]
Settings	mass density, [2] [kg/m3]	refractive index, [1]	speed of sound, [2] [m/s]
288.15 K	1054.33	1.4575	1455.5
293.15 K	1050.45	1.4559	1436.8
298.15 K	1046.8	1.4542	1419.2
303.15 K	1043.15	1.4525	1402.4
308.15 K	1039.52	1.451	1386.3
313.15 K	1035.89	1.4492	1370.7
318.15 K	1032.27	1.4478	1355.5
323.15 K	1028.73	1.4461	1340.6
328.15 K	1025.22	1.4446	1326
333.15 K	1021.7	1.4432	1311.7
338.15 K	1018.2	1.4414	1297.6
343.15 K	1014.69	1.4398	1284

CC(C)COC(=O)[C@@H](N)C(C)C.CCCCCCCCCCCCOS(=O)(=O)O [isobutyl L-valinate dodecyl sulfate]
Settings	refractive index, [1]	speed of sound, [2] [m/s]
288.15 K	1.4568	1434.4
293.15 K	1.4555	1421.3
298.15 K	1.4538	1408.6
303.15 K	1.4519	1394.6
308.15 K	1.4505	1379.9
313.15 K	1.4488	1365.5
318.15 K	1.4471	1350.9
323.15 K	1.4455	1335.5
328.15 K	1.4438	1318.1
333.15 K	1.4422	1299.9
338.15 K	1.4406	1275
343.15 K	1.439	1249.5
